Data from PMC6435586 (Frontiers in Pharmacology, 2019).
Where no end group is shown, it is not given here.

Assay: Serum stability assay
Assay type: in vitro ADME, human
Conditions: peptide 6.6 μM
Protocol: The serum stability of the peptides was tested using human male serum (Sigma, USA), as previously described ([Chan et al., 2011]). All peptides were tested at a final concentration of 6.6 μM after dilution from a stock solution at 200 μM. The serum was centrifuged at 17,000g for 10 min to remove the lipid component, and the supernatant incubated at 37°C for 15 min, prior to conducting the assay. The peptides were incubated in serum or phosphate-buffered saline (PBS) at 37°C, and aliquots were taken at 0, 3, 8, and 24 h (40-μl aliquots were taken in triplicate). The aliquots of serum were quenched with 40 μl of 6 M urea and incubated for 10 min at 4°C. The aliquots were then quenched with 40 μl of 20% trichloroacetic acid (TCA) and incubated for another 10 min at 4°C to precipitate serum proteins. Finally, samples were centrifuged at 17,000g for 10 min, and 90 μl of the supernatant was analyzed on reversed-phase HPLC using a Phenomenex Jupiter Proteo C12 analytical column (150 mm × 2.00 mm, 4 μm, 90 Å, Phenomenex, Torrance, CA, USA) and a linear gradient of solvent B [90% acetonitrile/10% H2O, 0.045% trifluoroacetic acid (TFA)] at a flow rate of 0.4 ml/min using an Agilent 1260 Infinity system (Agilent Technologies, Hanover, Germany). The control samples contained equivalent amounts of the peptides in PBS and were subjected to the same treatment procedure. The stability at each time point was calculated based on the area of the RP-HPLC peaks following incubation with serum at 214 nm as a percentage of the area of 0-h serum-treated peptides ([Chan et al., 2013]).

In the case of MAMPAFTTDH-NH2 [CTX-1], the “detection of peptide in human serum over time” value (human male serum, 37°C, 24 h, RP-HPLC at 214 nm) is reported as “could be detected up to 24 h” and the remaining at 8 h, 6.6 μM (lipid component removed by centrifugation, human male serum (lipid removed by centrifugation, pre-incubated 15 min at 37°C), 8 h, RP-HPLC C12 peak area at 214 nm as % of 0-h serum-treated peptide, triplicate, mean, read-out: peptide remaining at the 8-h time point in human serum) is reported as over 18%.

For QMARKADDAAG-NH2 [CTX-2], the “relative stability in human serum among the fragments (in words)” value (human male serum, 37°C, 0-24 h, RP-HPLC at 214 nm) was “most stable of the peptides tested”.

Work on YGPQALAR-NH2 [CTX-4] yielded a remaining at 3 h, 6.6 μM (lipid component removed by centrifugation, human male serum (lipid removed by centrifugation, pre-incubated 15 min at 37°C), 3 h, RP-HPLC C12 peak area at 214 nm as % of 0-h serum-treated peptide, triplicate, mean, read-out: peptide remaining after 3 h in human serum) of under 10%.
